Holding throughout (format): cell-based, Saccharomyces cerevisiae
Test [1] deals with gene-disrupted strain DEL025 (YLR311C) transformed with a plasmid p-YBR072W. The test can be described thus: promoter assay (GFP reporter), Example 2. The conditions noted are these: DEL025, p-YBR072W, GFP fluorescence 4 hours after loading, parent strain BY4743. The method, then: (§1) In a gene-disrupted strain, a growing rate becomes small so much, or medium components in which the strain can be grown are different in some cases, depending on a disrupted gene. Then, in the present experiment studying a host cell of a promoter assay method, in view of easy comparison with a control experiment, among gene-disrupted strains obtained as the result of Example 1, a few strains which have sensitivity to many chemicals and are grown by the same procedure as that of a parent strain were selected. Selected gene-disrupted strains are 8 strains of DEL000, DEL002, DEL011, DEL014, DEL016, DEL019, DEL022 and DEL025 in Table 7. Further, as a control, a parent strain, BY4743 was used.
(§2) A competent cell of each of a parent strain of a gene-disrupted strain and selected gene-disrupted strains was prepared. This competent cell was transformed using two kinds of prepared plasmids for promoter assay, p-YBR072W (in which GFP was connected understream of a promoter of YBR072W) and p-YPL171C (in which GFP was connected downstream of a promoter of YPL171C).
(§3) The resulting transformant was grown to the steady state by shaking-culturing on a SD medium (histidine, leucine) at 25° C. The transformant in the steady state was diluted 500-fold with the same medium, shaking-cultured at 25° C. for 15 hours and, after it was confirmed that an absorbance at 600 nm was 0.2 to 0.5 as a logarithmic growth phase, chemicals having different concentrations were loaded. After loading of chemicals, fluorescence of cells which had been cultured for 4 hours was measured using a flow cytometer (FITC filter, EPICS XL-MCL, Bechmancoulter), and this was adopted as an expression amount of GFP (green fluorescence protein) which is a marker gene. A fluorescence intensity of 10000 cells was measured with a flow cytometer by one measurement and an average of fluorescence intensities of all cells was obtained, and was adopted as a measured value. Similarly, a fluorescence intensity of a cell to which a chemical had not been loaded was obtained, and results are shown as a fluorescence intensity ratio.

Test [2] relates to gene-disrupted strain DEL022 (YLR226W) transformed with a plasmid p-YBR072W. The test can be described thus: promoter assay (GFP reporter), Example 2. The conditions noted are these: GFP fluorescence 4 hours after loading, parent strain BY4743. The protocol: as §1, §2, §3
In test [3] the test system is gene-disrupted strain DEL000 (YPR036W) transformed with a plasmid p-YBR072W. The test can be described thus: promoter assay (GFP reporter), Example 2. The conditions noted are these: GFP fluorescence 4 hours after loading, parent strain BY4743. The protocol: as §1, §2, §3
Test [4] has as its system gene-disrupted strain DEL019 (YIL036W) transformed with a plasmid p-YBR072W. Briefly: promoter assay (GFP reporter), Example 2. The conditions noted are these: DEL 019, p-YBR072W, GFP fluorescence 4 hours after loading, parent strain BY4743. The method, then: as §1, §2, §3
Test [5] relates to homozygous diploid of gene-disrupted strain DEL013 (YGR105W) transformed with a plasmid p-YBR072W. Briefly: promoter assay (GFP reporter), Example 3. The conditions noted are these: W303 background. The text has this:
(§4) In order to prepare a gene-disrupted strain transformation cassette, genes having chemical sensitivity; YPR036W(DEL000), YDL151C(DEL001), YGL026C(DEL003), YHR039C-A(DEL006), YKL080W(DEL007), YLR447C(DEL008), YGR006W(DEL012), YGR105W(DRL013), YJR104C(DEL014), YGL206C(DEL018), YIL036W(DEL019), YKL119C(DEL020), YLR226W(DEL022) and YLR311C(DEL025) in Table 7 were selected, and each gene was replaced with a transformation marker such as kanamycin resistance. As primers for performing PCT amplification, a N-terminal side (ORF(upper)) and a C-terminal side (ORF(lower)) in each ORF were used. A length of a sequence (ORF(upper) and ORF(lower)) of a primer homologues with ORF was 46 or 50 bp.
(§5) A W303 a mating type (ATCC200903) and a W303α mating type (ATCC201238) in which the same gene was gene disruption-manipulated were mated by a mating procedure (Yeast Gene Experimental Manual: Maruzen Co., Ltd., p 83-92) to prepare homozygous diploids. Separately, mating of a W303a mating type, and a non-gene-disrupted W303α type was performed by the similar procedure to prepare heterozygous diploids.
(§6) By such the procedure, homozygous diploids of DEL000, DEL001, DEL003, DEL006, DEL007, DEL008, DEL012, DEL013, DEL014, DEL018, DEL019, DEL020, DEL022 and DEL025 in Table 7 were prepared. In addition, heterozygous diploids in which DEL006, DEL014 and DEL 022 were mated with a non-gene-disrupted strain (hereafter, referred to as DEL006 heterozygous diploid, DEL 014 heterozygous diploid, DEL022 heterozygous diploid) and, further, a heterozygous diploid in which DEL000 and DEL014 were mated (hereafter, referred to as DEL000/014 heterozygous diploid) were prepared.
(§7) Competent cells of W303 ATCC201239 (MATa/MATα leu2-3/leu2-3 leu2-112/leu2-112 trp1-1/trp1-1 ura3-1/ura3-1 his 3-11/his3-11 his3-15/his3-15 ade2-1/ade2-1 can1-100/can1-100) which is a parent strain of gene-disrupted strains, and each of prepared gene-disrupted strains were prepared. The competent cells were transformed using two kind of prepared plasmid for promoter assay, p-YBR072W (in which GFP is connected downstream of a promoter of YBR072W) and p-YPL171C (in which GFP is connected downstream of a promoter of YPL171C).
(§8) The resulting transformant was grown to the steady state by shaking-culturing on a SD medium (adenine, hystidine, triptophan, leucine) at 25° C. The transformant in the steady state was diluted 500-fold with the same medium, shaking-cultured at 25° C. for 15 hours and, after it was confirmed that an absorbance at 600 nm was 0.2 to 0.5 as a logarithmic growth phase, chemicals having different concentrations were loaded. After loading of chemicals, fluorescence of cells which had been cultured for 4 hours was measured using a flow cytometer (FITC filter, EPICS XL-MCL, Bechmancoulter), and this was adopted as an expression amount of GFP (green fluorescence protein) which is a marker gene. A fluorescence intensity of 10000 cells was measured with a flow cytometer by one measurement and an average of fluorescence intensities of all cells was obtained, and was adopted as a measured value. Similarly, a fluorescence intensity of a cell to which a chemical had not been loaded was obtained, and results are shown as difference in a fluorescence intensity.

The subject of test [6] is heterozygous diploid of gene-disrupted strain DEL022 (YLR226W) transformed with a plasmid p-YBR072W. Briefly: promoter assay (GFP reporter), Example 3. The conditions noted are these: DEL0022 heterozygous diploid, W303 background.
Description: as §4, §5, §6, §7, §8

Test [7] relates to homozygous diploid of gene-disrupted strain DEL020 (YKL119C) transformed with a plasmid p-YBR072W. Briefly: promoter assay (GFP reporter), Example 3. The conditions noted are these: W303 background.
Description: as §4, §5, §6, §7, §8

In test [8] the test system is homozygous diploid of gene-disrupted strain DEL012 (YGR006W) transformed with a plasmid p-YBR072W. The test can be described thus: promoter assay (GFP reporter), Example 3. The conditions noted are these: W303 background.
Description: as §4, §5, §6, §7, §8

Test [9] relates to homozygous diploid of gene-disrupted strain DEL006 (YHR039C-A) transformed with a plasmid p-YBR072W. The test can be described thus: promoter assay (GFP reporter), Example 3. The conditions noted are these: W303 background.
Description: as §4, §5, §6, §7, §8

The subject of test [10] is homozygous diploid of gene-disrupted strain DEL022 (YLR226W) transformed with a plasmid p-YBR072W. Briefly: promoter assay (GFP reporter), Example 3. The conditions noted are these: DEL022 (DEL0022) homozygous diploid, W303 background.
Description: as §4, §5, §6, §7, §8

In test [11] the test system is homozygous diploid of gene-disrupted strain DEL007 (YKL080W) transformed with a plasmid p-YBR072W. Briefly: promoter assay (GFP reporter), Example 3. The conditions noted are these: EL007 homozygous diploid, W303 background.
Description: as §4, §5, §6, §7, §8

Here are results for 1 compound from US8173387B2, “Method of examining chemical using gene-disrupted strain” (priority 2003, dated 2012).

Regarding `CCN(CC)C(=O)SCc1ccc(Cl)cc1` [benthiocarb], the “concentration at which the strain responded, as fraction of a concentration of a parent strain” value in test [1] is listed as 1/3; in [2], 1/10; in test [3], 1/3; in [4] it was 1/100. The “concentration at which sensitivity is shown, as fraction of a concentration of a gene-non-disrupted strain” value is recorded as 1/3 in test [5]; 1/3 in test [6]; 1/3 in test [7]; 1/3 in test [8]; 1/10 in [9]; 1/10 in test [10]. Further, the “concentration at which sensitivity is shown, as fraction of a concentration of a gene-non-disrupted strain” value in test [11] was 1/10.
